Measured values taken from patent publication US11459323B2, “Monocyclic β-lactam compound for treating bacterial infection” (MEDSHINE DISCOVERY INC., priority 2018, dated 2022).
In brackets after ≈: the same amount, converted by molar mass. Values belong to the compound of their own block, whether it stands above or below them.

Legend:
Assay in all cases: MIC on clinically isolated bacteria
Type in all cases: cell-based
[1] = system: Acinetobacter baumannii C394; conditions: Acinetobacter baumannii C394; read-out: Minimum Inhibitory Concentration (MIC)
Excerpt: (§1) Twenty-five strains of clinically isolated Acinetobacter baumannii and twenty-seven strains of Pseudomonas aeruginosa were respectively selected and used to determine the minimum inhibitory concentration (MIC) of the compounds by micro-liquid dilution method according to the Institute of Clinical and Laboratory Standard (CLSI) requirements.

[2] = system: Acinetobacter baumannii C270; conditions: Acinetobacter baumannii C270; read-out: Minimum Inhibitory Concentration (MIC)
Excerpt: as §1

[3] = system: Acinetobacter baumannii C361; conditions: Acinetobacter baumannii C361; read-out: Minimum Inhibitory Concentration (MIC)
Excerpt: as §1

[4] = system: Pseudomonas aeruginosa W6; conditions: read-out: MIC
Excerpt: as §1

[5] = system: Acinetobacter baumannii C279; conditions: Acinetobacter baumannii C279; read-out: Minimum Inhibitory Concentration (MIC)
Excerpt: as §1

[6] = system: Acinetobacter baumannii C402; conditions: Acinetobacter baumannii C402; read-out: Minimum Inhibitory Concentration (MIC)
Excerpt: as §1

[7] = system: Pseudomonas aeruginosa W28; conditions: read-out: MIC
Excerpt: as §1

[8] = system: Acinetobacter baumannii C281; conditions: Acinetobacter baumannii C281; read-out: Minimum Inhibitory Concentration (MIC)
Excerpt: as §1

[9] = system: Acinetobacter baumannii C390; conditions: Acinetobacter baumannii C390; read-out: Minimum Inhibitory Concentration (MIC)
Excerpt: as §1

[10] = system: Acinetobacter baumannii C330; conditions: Acinetobacter baumannii C330; read-out: Minimum Inhibitory Concentration (MIC)
Excerpt: as §1

[11] = system: Pseudomonas aeruginosa W47; conditions: read-out: MIC
Excerpt: as §1

[12] = system: Pseudomonas aeruginosa W1; conditions: read-out: MIC
Excerpt: as §1

[13] = system: Pseudomonas aeruginosa W32; conditions: read-out: MIC
Excerpt: as §1

[14] = system: Acinetobacter baumannii C403; conditions: Acinetobacter baumannii C403; read-out: Minimum Inhibitory Concentration (MIC)
Excerpt: as §1

[15] = system: Pseudomonas aeruginosa W4; conditions: read-out: MIC
Excerpt: as §1

[16] = system: Acinetobacter baumannii C357; conditions: Acinetobacter baumannii C357; read-out: Minimum Inhibitory Concentration (MIC)
Excerpt: as §1

[17] = system: Acinetobacter baumannii C251; conditions: Acinetobacter baumannii C251; read-out: Minimum Inhibitory Concentration (MIC)
Excerpt: as §1

[18] = system: Pseudomonas aeruginosa W13; conditions: read-out: MIC
Excerpt: as §1

[19] = system: Pseudomonas aeruginosa W21; conditions: read-out: MIC
Excerpt: as §1

[20] = system: Acinetobacter baumannii C333; conditions: Acinetobacter baumannii C333; read-out: Minimum Inhibitory Concentration (MIC)
Excerpt: as §1

[21] = system: Pseudomonas aeruginosa W19; conditions: read-out: MIC
Excerpt: as §1

[22] = system: Pseudomonas aeruginosa W46; conditions: read-out: MIC
Excerpt: as §1

[23] = system: Acinetobacter baumannii C401; conditions: Acinetobacter baumannii C401; read-out: Minimum Inhibitory Concentration (MIC)
Excerpt: as §1

[24] = system: Acinetobacter baumannii C319; conditions: Acinetobacter baumannii C319; read-out: Minimum Inhibitory Concentration (MIC)
Excerpt: as §1

[25] = system: Pseudomonas aeruginosa W27; conditions: read-out: MIC
Excerpt: as §1

[26] = system: Pseudomonas aeruginosa C755; conditions: read-out: MIC
Excerpt: as §1

[27] = system: Pseudomonas aeruginosa W24; conditions: read-out: MIC
Excerpt: as §1

[28] = system: Pseudomonas aeruginosa C754; conditions: read-out: MIC
Excerpt: as §1

[29] = system: Pseudomonas aeruginosa W20; conditions: read-out: MIC
Excerpt: as §1

[30] = system: Acinetobacter baumannii C332; conditions: Acinetobacter baumannii C332; read-out: Minimum Inhibitory Concentration (MIC)
Excerpt: as §1

[31] = system: Pseudomonas aeruginosa W9; conditions: read-out: MIC
Excerpt: as §1

[32] = system: Acinetobacter baumannii C241; conditions: Acinetobacter baumannii C241; read-out: Minimum Inhibitory Concentration (MIC)
Excerpt: as §1

[33] = system: Pseudomonas aeruginosa C763; conditions: read-out: MIC
Excerpt: as §1

[34] = system: Acinetobacter baumannii C328; conditions: Acinetobacter baumannii C328; read-out: Minimum Inhibitory Concentration (MIC)
Excerpt: as §1

[35] = system: Pseudomonas aeruginosa W42; conditions: read-out: MIC
Excerpt: as §1

[36] = system: Acinetobacter baumannii C312; conditions: Acinetobacter baumannii C312; read-out: Minimum Inhibitory Concentration (MIC)
Excerpt: as §1

[37] = system: Pseudomonas aeruginosa C745; conditions: read-out: MIC
Excerpt: as §1

[38] = system: Pseudomonas aeruginosa W29; conditions: read-out: MIC
Excerpt: as §1

[39] = system: Acinetobacter baumannii C313; conditions: Acinetobacter baumannii C313; read-out: Minimum Inhibitory Concentration (MIC)
Excerpt: as §1

[40] = system: Acinetobacter baumannii C181; conditions: Acinetobacter baumannii C181; read-out: Minimum Inhibitory Concentration (MIC)
Excerpt: as §1

[41] = system: Pseudomonas aeruginosa W35; conditions: read-out: MIC
Excerpt: as §1

MIC [1]: 2 µg/mL (≈ 2.82 µM) | MIC [2]: 2 µg/mL (≈ 2.82 µM) | MIC [3]: 1 µg/mL (≈ 1.41 µM) | MIC [4]: 4 µg/mL (≈ 5.64 µM) | MIC [5]: 2 µg/mL (≈ 2.82 µM) | MIC [6]: 2 µg/mL (≈ 2.82 µM) | MIC [7]: 4 µg/mL (≈ 5.64 µM) | MIC [8]: 2 µg/mL (≈ 2.82 µM) | MIC [9]: 2 µg/mL (≈ 2.82 µM) | MIC [10]: 2 µg/mL (≈ 2.82 µM) | MIC [11]: 2 µg/mL (≈ 2.82 µM) | MIC [12]: 2 µg/mL (≈ 2.82 µM) | MIC [13]: 4 µg/mL (≈ 5.64 µM) | MIC [14]: 4 µg/mL (≈ 5.64 µM) | MIC [15]: 0.5 µg/mL (≈ 0.704 µM) | MIC [16]: 2 µg/mL (≈ 2.82 µM) | MIC [17]: 8 µg/mL (≈ 11.3 µM) | MIC [18]: 0.5 µg/mL (≈ 0.704 µM) | MIC [19]: 0.5 µg/mL (≈ 0.704 µM) | MIC [20]: 2 µg/mL (≈ 2.82 µM) | MIC [21]: 1 µg/mL (≈ 1.41 µM) | MIC [22]: 2 µg/mL (≈ 2.82 µM) | MIC [23]: 1 µg/mL (≈ 1.41 µM) | MIC [24]: 2 µg/mL (≈ 2.82 µM) | MIC [25]: 4 µg/mL (≈ 5.64 µM) | MIC [26]: 0.5 µg/mL (≈ 0.704 µM) | MIC [27]: 2 µg/mL (≈ 2.82 µM) | MIC [28]: 0.5 µg/mL (≈ 0.704 µM) | MIC [29]: 4 µg/mL (≈ 5.64 µM) | MIC [30]: 2 µg/mL (≈ 2.82 µM) | MIC [31]: 4 µg/mL (≈ 5.64 µM) | MIC [32]: 4 µg/mL (≈ 5.64 µM) | MIC [33]: 4 µg/mL (≈ 5.64 µM) | MIC [34]: 2 µg/mL (≈ 2.82 µM) | MIC [35]: 0.5 µg/mL (≈ 0.704 µM) | MIC [36]: 2 µg/mL (≈ 2.82 µM) | MIC [37]: 4 µg/mL (≈ 5.64 µM) | MIC [38]: 1 µg/mL (≈ 1.41 µM) | MIC [39]: 2 µg/mL (≈ 2.82 µM) | MIC [40]: 4 µg/mL (≈ 5.64 µM) | MIC [41]: 0.5 µg/mL (≈ 0.704 µM)
Structure (SMILES): CC1(C)[C@H](NC(=O)/C(=N\O[C@@H](COc2ccc3c(c2)CN(C(=N)N[C@@H]2CCCNC2)C3)C(=O)O)c2csc(N)n2)C(=O)N1OS(=O)(=O)O [Compound 41]

Structure (SMILES): C[C@H]1[C@H](NC(=O)/C(=N\OC(C)(C)C(=O)O)c2csc(N)n2)C(=O)N1S(=O)(=O)O [Aztreonam, reference compound]
MIC [1]: 64 µg/mL (≈ 147 µM) | MIC [2]: 64 µg/mL (≈ 147 µM) | MIC [3]: 32 µg/mL (≈ 73.5 µM) | MIC [4]: 32 µg/mL (≈ 73.5 µM) | MIC [5]: 64 µg/mL (≈ 147 µM) | MIC [6]: 32 µg/mL (≈ 73.5 µM) | MIC [7]: 32 µg/mL (≈ 73.5 µM) | MIC [8]: 64 µg/mL (≈ 147 µM) | MIC [9]: 64 µg/mL (≈ 147 µM) | MIC [10]: 64 µg/mL (≈ 147 µM) | MIC [11]: 16 µg/mL (≈ 36.7 µM) | MIC [12]: 32 µg/mL (≈ 73.5 µM) | MIC [13]: 32 µg/mL (≈ 73.5 µM) | MIC [14]: 64 µg/mL (≈ 147 µM) | MIC [15]: 4 µg/mL (≈ 9.19 µM) | MIC [16]: 32 µg/mL (≈ 73.5 µM) | MIC [17]: 32 µg/mL (≈ 73.5 µM) | MIC [18]: 16 µg/mL (≈ 36.7 µM) | MIC [19]: 16 µg/mL (≈ 36.7 µM) | MIC [20]: 64 µg/mL (≈ 147 µM) | MIC [21]: 16 µg/mL (≈ 36.7 µM) | MIC [22]: 16 µg/mL (≈ 36.7 µM) | MIC [23]: 32 µg/mL (≈ 73.5 µM) | MIC [24]: 64 µg/mL (≈ 147 µM) | MIC [25]: 32 µg/mL (≈ 73.5 µM) | MIC [26]: 4 µg/mL (≈ 9.19 µM) | MIC [27]: 32 µg/mL (≈ 73.5 µM) | MIC [28]: 4 µg/mL (≈ 9.19 µM) | MIC [29]: 32 µg/mL (≈ 73.5 µM) | MIC [30]: 64 µg/mL (≈ 147 µM) | MIC [31]: 32 µg/mL (≈ 73.5 µM) | MIC [32]: 128 µg/mL (≈ 294 µM) | MIC [33]: 32 µg/mL (≈ 73.5 µM) | MIC [34]: 64 µg/mL (≈ 147 µM) | MIC [35]: 16 µg/mL (≈ 36.7 µM) | MIC [36]: 64 µg/mL (≈ 147 µM) | MIC [37]: 32 µg/mL (≈ 73.5 µM) | MIC [38]: 32 µg/mL (≈ 73.5 µM) | MIC [39]: 64 µg/mL (≈ 147 µM) | MIC [40]: 64 µg/mL (≈ 147 µM) | MIC [41]: 2 µg/mL (≈ 4.59 µM)
